Literature values, collected in patent US20240398831A1, “COMPOSITIONS COMPRISING SMALL MOLECULE REGULATORS OF TUMOR IMMUNITY AND METHODS OF USING SAME” (Duke University, priority 2021, published 2024).

Test system: melanoma
Conditions: human, in vivo; cited from earlier work

CC/C(=C(\c1ccccc1)c1ccc(OCCN(C)C)cc1)c1ccccc1 [tamoxifen]
results of studies in melanoma patients: equivocal
